Values of other authors as cited in patent US20260265270A1 (priority 2023, published 2026).

What was measured:
[1] = system: IL-2 secreted by T cells; conditions: after administration of the inhibitor
[2] = system: IL-23 secreted by monocytes; conditions: after administration of the inhibitor

Compound: COc1ccc(C[C@H](NC(=O)[C@H](C)NC(=O)CN2CCOCC2)C(=O)N[C@@H](Cc2ccccc2)C(=O)C2(C)CO2)cc1 (stereo in doubt) [ONX0914]
- IL-2 secreted by T cells [1]: decrease significantly
- IL-23 secreted by monocytes [2]: decrease significantly
